How the values were obtained:
[1] = test system: anti-Thy 1 glomerulonephritis; experiment: Glomerular mRNA expression (Northern hybridization); assay type: in vivo, Sprague Dawley rats; settings: enalapril alone
Experimental: These experiments were performed on male Sprague Dawley rats (200-250 g) obtained from the Sasco colony of Charles River Laboratories (Wilmington, Mass., USA). Animal housing and care were in accordance with the NIH Guide for the Care and Use of Laboratory Animals, NIH Publication No. 85-23, 1985. Animals were fed a normal protein diet (22% protein, Teklad No. 86 550, Teklad Premier Laboratory Diets, Madison, Wis., USA). Glomerulonephritis was induced by tail vein injection of 2.25 mg/Kg of the monoclonal anti-Thy 1.1 antibody OX-7 (NCCC, Biovest International Inc, Minneapolis, Minn., USA). OX-7 binds to a Thy 1-like epitope on the surface of mesangial cells causing complement-dependent cell lysis followed by fibrotic tissue repair (Bagchus et al., Lab Invest. 55:680-687 (1986)). Control animals were injected with similar volumes of phosphate-buffered saline (PBS). Groups of 8 rats were assigned and treated as outlined in Table 2. […] Changes in mRNA levels were determined by first correcting for the densitometric intensity of 18S for each sample. For comparison, this ratio was set at unity for normal control samples and other lanes on the same gel were expressed as fold increases over this value. […] The percent reduction in disease severity in a treated group was calculated as:

[2] = test system: anti-Thy 1 glomerulonephritis; experiment: Proteinuria in anti-Thy 1 glomerulonephritis; assay type: in vivo, Sprague Dawley rats; settings: enalapril monotherapy
Experimental: These experiments were performed on male Sprague Dawley rats (200-250 g) obtained from the Sasco colony of Charles River Laboratories (Wilmington, Mass., USA). Animal housing and care were in accordance with the NIH Guide for the Care and Use of Laboratory Animals, NIH Publication No. 85-23, 1985. Animals were fed a normal protein diet (22% protein, Teklad No. 86 550, Teklad Premier Laboratory Diets, Madison, Wis., USA). Glomerulonephritis was induced by tail vein injection of 2.25 mg/Kg of the monoclonal anti-Thy 1.1 antibody OX-7 (NCCC, Biovest International Inc, Minneapolis, Minn., USA). OX-7 binds to a Thy 1-like epitope on the surface of mesangial cells causing complement-dependent cell lysis followed by fibrotic tissue repair (Bagchus et al., Lab Invest. 55:680-687 (1986)). Control animals were injected with similar volumes of phosphate-buffered saline (PBS).
Groups of 8 rats were assigned and treated as outlined in Table 2. Doses of enalapril above […] in drinking water are maximally effective in this model (Peters et al., Kidney Int. 54:1570-1580 (1998)). A dose of […] enalapril was used here. […]
The disease-induced increase in a variable was defined as the mean value for the disease control group minus the mean value of the normal control group. The percent reduction in disease severity in a treated group was calculated as: […]

CCOC(=O)[C@H](CCc1ccccc1)N[C@@H](C)C(=O)N1CCC[C@H]1C(=O)O [enalapril]
reduction of TGF-β1 mRNA [1]: 29%
reduction of disease-induced increases in urinary protein [2]: 78%

Reference: patent US7763580B2, “Methods for treating conditions associated with the accumulation of excess extracellular matrix” (University of Utah Research Foundation, priority 1999, dated 2010)
